# Assay results taken from US20220175820A1 (PIERRE FABRE DERMO-COSMETIQUE, priority 2019, published 2022).
# Marks after values point to notes of the source that are not given here.
# What was measured:
# [1] = tested on: transcription factor NFκB; test: NFκB activation stimulated by TNFα in HaCat keratinocytes with luciferase reporter gene; assay type: cell-based, human; details: TNFα 0.3 ng/ml; for NFκB activation % Inh / NFκB activation RLU Mean: 5 hours
# Description: The cell line used in this study is the HaCat line (human keratinocytes) stably transfected with the luciferase reporter gene.
# These cells are cultured on 24-well plates under the same conditions as in Example 1. They are then preincubated for 60 minutes with the products to be tested, added to the culture medium in the form of a solution in water. A stimulant, TNFα (0.3 ng/ml, diluted in culture medium) is added to the cultures which are then incubated for 5 hours at 37° C. […] A positive control is used in this test, dexamethasone (synthetic glucocorticoid hormone, with an antiinflammatory and immunosuppressant effect, added to the culture medium in the form of a solution in water) tested at 2 μM in the culture medium. Note that 3 independent experiments were conducted. The Bright-Glo™ agent (which induces cell lysis and thus enables luciferase release) and its substrate (luciferin) are added before reading the luminescence. The raw data are analyzed by Excel. The intergroup comparison is performed by one-way ANOVA followed by Dunnett's post-hoc test.
# [2] = tested on: prostaglandin PG6KF1α production, HaCat line (human keratinocytes); test: PG6KF1α release by HaCat keratinocytes stimulated with calcium ionophore A23187 (ELISA); assay type: cell-based
# Description: The cell line used in this study is the HaCat line (human keratinocytes).
# The cells are cultured in DMEM (Dulbecco's Modified Eagle Medium) supplemented with foetal calf serum in an environment at 37° C. and 5% CO2 on 24-well plates. They are then preincubated for 60 minutes, still at 37° C., with the products to be tested dissolved in water. A stimulant the arachidonic acid pathway is added for 5 hours. This is the stimulation phase; the stimulant is the calcium ionophore A23187 (solution in 0.01% DMSO) used at 5 μM. […] After 5 hours of stimulation, still in the same medium, the culture supernatant of each well is drawn off, centrifuged at 3000 RPM then stored at −20° C. The production of prostaglandin PG6KF1α in culture supernatant is measured with the Euromedex Elisa kit according to the supplier's instructions. Statistical analysis is performed by ANOVA followed by Dunnett's post-hoc test. Note that 3 independent experiments were conducted. The results for each product and for each dose are averaged from measurements performed on 3 wells. Thus, the control group (with no stimulant) makes it possible to quantify basal PG6KF1α production.
# [3] = pH ranging from 4 to 10 at ambient temperature; cited from earlier work
# [4] = tested on: TSLP; test: TSLP production by stimulated normal human epidermal keratinocytes (atopic dermatitis model, ELISA); assay type: cell-based; details: Poly I:C, PamC3, IL-4, IL-13
# Description: (§1) The study is performed on normal human epidermal keratinocytes cultured under standard conditions (37° C., 5% CO2). The culture medium is standard (keratinocyte-SFM supplemented with 0.25 ng/ml epidermal growth factor (EGF), 25 μg/ml pituitary extract and 25 μg/ml gentamycin). The test medium is the same without growth factor.
# (§2) To simulate an atopic dermatitis environment, keratinocytes are preincubated for 1 hour in the medium with or without (control) the compounds to be tested, the vehicle (water) or the positive control, bafilomycin (macrolide family) at 30 nM. […] After this preincubation, keratinocytes are stimulated for 24 hours by a mixture of TLR ligands (Poly I:C and PamC3) and inflammatory cytokines (IL-4 and IL-13) added to the cells. An unstimulated control condition is also done at the same time. The cells are incubated for 24 hours.
# (§3) The culture supernatants are collected, centrifuged and frozen at −80° C. TSLP and IL-8 are quantified by ELISA.
# (§4) Three independent experiments are conducted. Statistical analysis is determined by one-way ANOVA followed by Dunnett's post-hoc test.
# [5] = tested on: IL-8; test: IL-8 production by stimulated normal human epidermal keratinocytes (atopic dermatitis model, ELISA); assay type: cell-based; details: Poly I:C, PamC3, IL-4, IL-13
# Description: as §1, §2, §3, §4
# [6] = indomethacin 0.1 μM, A23187 5 μM for 5 hours
# [7] = dextran sulfate (Dextralip, 9000-20000 Da) 0.3 μg/ml
# [8] = dextran sulfate (Dextralip, 9000-20000 Da) 0.3 μg/ml, listed as dextran sulfate
# [9] = dextran sulfate (Dextralip, 9000-20000 Da) 3 μg/ml
# [10] = dextran sulfate (Dextralip, 9000-20000 Da) 30 μg/ml
# [11] = natural dextran sulfate 9000-20000 Da (Dextralip) 10 μg/ml, A23187 5 μM 5 h
# [12] = natural dextran sulfate 9000-20000 Da (Dextralip) 30 μg/ml, A23187 5 μM 5 h
# [13] = natural dextran sulfate 9000-20000 Da (Dextralip) 100 μg/ml, A23187 5 μM 5 h
# [14] = natural dextran sulfate 9000-20000 Da (Dextralip) 300 μg/ml, A23187 5 μM 5 h
# [15] = natural dextran sulfate 9000-20000 Da (Dextralip) 1000 μg/ml, A23187 5 μM 5 h
# [16] = natural dextran sulfate 9000-20000 Da (Dextralip) 3000 μg/ml, A23187 5 μM 5 h
# [17] = synthetic dextran sulfate 4000-8000 Da 10 μg/ml, A23187 5 μM 5 h
# [18] = synthetic dextran sulfate 4000-8000 Da 30 μg/ml, A23187 5 μM 5 h
# [19] = synthetic dextran sulfate 4000-8000 Da 100 μg/ml, A23187 5 μM 5 h
# [20] = synthetic dextran sulfate 4000-8000 Da 300 μg/ml, A23187 5 μM 5 h
# [21] = synthetic dextran sulfate 4000-8000 Da 1000 μg/ml, A23187 5 μM 5 h
# [22] = synthetic dextran sulfate 4000-8000 Da 3000 μg/ml, A23187 5 μM 5 h
# [23] = natural dextran sulfate (Dextralip, 9000-20000 Da) 0.3 mg/ml
# [24] = natural dextran sulfate (Dextralip, 9000-20000 Da) 1 mg/ml
# [25] = natural dextran sulfate (Dextralip, 9000-20000 Da) 3 mg/ml
compound,measurement,setting,value
"C[C@@H]1C[C@H]2[C@@H]3CCC4=CC(=O)C=C[C@]4(C)[C@@]3(F)[C@@H](O)C[C@]2(C)[C@@]1(O)C(=O)CO [Dexa, dexamethasone, reference compound]",inhibition at 2 µM,"[1]; Homo sapiens, HaCaT, 5 h, dexamethasone 2 μM, read-out: NFκB activation % Inh",> 40%
same,NFκB activation % Inh,[1]; dexamethasone 2 μM,41%
same,NFκB activation RLU Mean,[1]; dexamethasone 2 μM,14206 RLU
"COc1ccc2c(c1)c(CC(=O)O)c(C)n2C(=O)c1ccc(Cl)cc1 [Indo, indomethacin, reference compound]",PG6KF1α % Inh,[2]; [6],33%
same,PG6KF1α (pg/ml) Mean,[2]; [6],839.9 pg/mL
same,PG6KF1α % Inh,"[2]; indomethacin 0.1 μM, A23187 5 μM for 5 hours, listed as Indomethacin",a third
Sodium dextran sulphate [Dextran sulfate],stability in solutions,[3],high stability
same,TSLP production at 24 h % Inh,[4]; [7],0%
same,TSLP production at 24 h Mean,[4]; [7],247 pg/mL
same,TSLP production at 24 h % Inh,[4]; [8],does not induce reduction in TSLP production
same,TSLP production at 24 h % Inh,[4]; [9],90%
same,TSLP production at 24 h Mean,[4]; [9],34 pg/mL
same,TSLP production at 24 h % Inh,[4]; [10],96%
same,TSLP production at 24 h Mean,[4]; [10],19 pg/mL
same,PG6KF1α % Inh,[2]; [11],36%
same,PG6KF1α (pg/ml) Mean,[2]; [11],1878.6 pg/mL
same,PG6KF1α % Inh,[2]; [12],23%
same,PG6KF1α (pg/ml) Mean,[2]; [12],2113.4 pg/mL
same,PG6KF1α % Inh,[2]; [13],14%
same,PG6KF1α (pg/ml) Mean,[2]; [13],2287.5 pg/mL
same,PG6KF1α % Inh,[2]; [14],32%
same,PG6KF1α (pg/ml) Mean,[2]; [14],1950.9 pg/mL
same,PG6KF1α % Inh,[2]; [15],43%
same,PG6KF1α (pg/ml) Mean,[2]; [15],1737.6 pg/mL
same,PG6KF1α % Inh,[2]; [16],37%
same,PG6KF1α (pg/ml) Mean,[2]; [16],1843.8 pg/mL
same,PG6KF1α % Inh,[2]; [17],35%
same,PG6KF1α (pg/ml) Mean,[2]; [17],1536.5 pg/mL
same,PG6KF1α % Inh,[2]; [18],23%
same,PG6KF1α (pg/ml) Mean,[2]; [18],1719.7 pg/mL
same,PG6KF1α % Inh,[2]; [19],14%
same,PG6KF1α (pg/ml) Mean,[2]; [19],1848.5 pg/mL
same,PG6KF1α % Inh,[2]; [20],29%
same,PG6KF1α (pg/ml) Mean,[2]; [20],1626.6 pg/mL
same,PG6KF1α % Inh,[2]; [21],40%
same,PG6KF1α (pg/ml) Mean,[2]; [21],1462.5 pg/mL
same,PG6KF1α % Inh,[2]; [22],39%
same,PG6KF1α (pg/ml) Mean,[2]; [22],1486.2 pg/mL
same,NFκB activation % Inh,[1]; [23],does not reduce NFκB activation
same,NFκB activation RLU Mean,[1]; [23],27024 RLU
same,NFκB activation % Inh,"[1]; natural dextran sulfate (Dextralip, 9000-20000 Da) 0.3 mg/ml, listed as Dex S.",−13%
same,NFκB activation % Inh,[1]; [24],does not reduce NFκB activation
same,NFκB activation RLU Mean,[1]; [24],23229 RLU
same,NFκB activation % Inh,"[1]; natural dextran sulfate (Dextralip, 9000-20000 Da) 1 mg/ml, listed as Dex S.",3%
same,NFκB activation % Inh,[1]; [25],42%
same,NFκB activation RLU Mean,[1]; [25],13836 RLU
same,Production of IL-8 at 24 h % Inh,[5]; [7],0%
same,Production of IL-8 at 24 h Mean,[5]; [7],63672 pg/mL
same,Production of IL-8 at 24 h % Inh,[5]; [8],not sufficient to inhibit IL-8 production
same,Production of IL-8 at 24 h % Inh,[5]; [9],82** %
same,Production of IL-8 at 24 h Mean,[5]; [9],10837 pg/mL
same,Production of IL-8 at 24 h % Inh,"[5]; dextran sulfate (Dextralip, 9000-20000 Da) 3 μg/ml, listed as dextran sulfate",more than 80%
same,Production of IL-8 at 24 h % Inh,[5]; [10],100%
same,Production of IL-8 at 24 h Mean,[5]; [10],170 pg/mL
